These results are taken from patent publication US20160060260A1, “BROMODOMAIN INHIBITORS FOR TREATING DISEASE” (Board of Regents, The University of Texas System, priority 2014, published 2016).

Molecules are shown by their SMILES.

One may read the IC50 as the concentration that inhibits the measured activity by half.

The target in this assay is T1, Recombinant human His-tagged Trim24-PHD-bromodomain (Homo sapiens, UniProt O15164).
T1 construct: Recombinant human His-tagged Trim24-PHD-bromodomain (produced in-house); made in house
T1 sequence (O15164 824-1006 limits assumed): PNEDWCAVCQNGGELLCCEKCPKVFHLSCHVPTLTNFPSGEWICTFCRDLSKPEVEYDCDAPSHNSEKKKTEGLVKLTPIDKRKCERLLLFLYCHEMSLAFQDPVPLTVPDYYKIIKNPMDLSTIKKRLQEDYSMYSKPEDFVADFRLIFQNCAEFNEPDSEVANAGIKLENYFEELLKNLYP
As to the kind of experiment: Trim24 AlphaScreen Assay. The conditions noted are these: 5 nM Trim24 protein, 15 nM biotinylated H3K23ac (1-33aa) peptide. Type of assay: binding. An outline of the steps:
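His-tagged Trim24-PHD-bromodomain, biotinylated H3K23ac (1-33aa) peptide and compound incubated 1 h at room temperature in 50 mM Hepes pH 7.5, 100 mM NaCl, 0.12 mM Triton X-100.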
On the technique in general: Bead proximity is the source of the signal in Alpha formats.
As to `CCCOc1cc(OCCCOC)cc(Oc2cc3c(cc2NS(=O)(=O)c2cn(C)c(Cl)n2)n(C)c(=O)n3C)c1` [Example 149, 2-chloro-N-(6-(3-(3-methoxypropoxy)-5-propoxyphenoxy)-1,3-dimethyl-2-oxo-2,3-dihydro-1H-benzo[d]imidazol-5-yl)-1-methyl-1H-imidazole-4-sulfonamide], the IC50 fell in the range of 10 to 100 nM.

As to `CCCOc1cc(OCCCCCCN)cc(Oc2cc3c(cc2NS(=O)(=O)c2cccc(C(=O)O)c2)n(C)c(=O)n3C)c1` [Example 220, 3-(N-(6-(3-((6-aminohexyl)oxy)-5-propoxyphenoxy)-1,3-dimethyl-2-oxo-2,3-dihydro-1H-benzo[d]imidazol-5-yl)sulfamoyl)benzoic acid], the IC50 lay in the range of 100 to 1000 nM.

Take `CCCOc1cc(OCCCOC)cc(Oc2cc3c(cc2NS(=O)(=O)c2cn(CC(C)C)cn2)n(C)c(=O)n3C)c1` [Example 147, 1-isobutyl-N-(6-(3-(3-methoxypropoxy)-5-propoxyphenoxy)-1,3-dimethyl-2-oxo-2,3-dihydro-1H-benzo[d]imidazol-5-yl)-1H-imidazole-4-sulfonamide]: the IC50 lay within 10 to 100 nM.

Take `CCCOc1ccc(F)c(Oc2cc3c(cc2NS(=O)(=O)c2cn(C)cn2)n(C)c(=O)n3C)c1` [Example 104, N-(6-(2-fluoro-5-propoxyphenoxy)-1,3-dimethyl-2-oxo-2,3-dihydro-1H-benzo[d]imidazol-5-yl)-1-methyl-1H-imidazole-4-sulfonamide]: the 50% inhibitory concentration (IC50) was > 1000 nM.

Consider `COc1cc(OCC(C)C)cc(Oc2cc3c(cc2NS(=O)(=O)C2CC2)n(C)c(=O)n3C)c1` [Example 69, N-(6-(3-isobutoxy-5-methoxyphenoxy)-1,3-dimethyl-2-oxo-2,3-dihydro-1H-benzo[d]imidazol-5-yl)cyclopropanesulfonamide], for which the half-maximal inhibitory concentration (IC50) fell in the range of 10 to 100 nM.

On to `COc1ccc(S(=O)(=O)Nc2cc3c(cc2Oc2cc(OCCCCN)cc(OCC(F)(F)F)c2)n(C)c(=O)n3C)cc1OC` [Example 210, N-(6-(3-(4-aminobutoxy)-5-(2,2,2-trifluoroerthoxy)phenoxy)-1,3-dimethyl-2-oxo-2,3-dihydro-1H-benzo[d]imidazol-5-yl)-3,4-dimethoxybenzenesulfonamide], for which the IC50 is 10 to 100 nM.

On to `CCCOc1cc(OCCCOC)cc(Oc2cc3c(cc2NS(=O)(=O)c2cnn(CC)c2)n(C)c(=O)n3C)c1` [Example 207, 1-ethyl-N-(6-(3-(3-methoxypropoxy)-5-propoxyphenoxy)-1,3-dimethyl-2-oxo-2,3-dihydro-1H-benzo[d]imidazol-5-yl)-1H-pyrazole-4-sulfonamide], for which the IC50 lay within 10 to 100 nM.

Take `COC(=O)c1cccc(S(=O)(=O)Nc2cc3c(cc2Oc2cccc(OCC(F)(F)F)c2)n(C)c(=O)n3C)c1` [Example 192, methyl 3-(N-(1,3-dimethyl-2-oxo-6-(3-(2,2,2-trifluoroethoxy)phenoxy)-2,3-dihydro-1H-benzo[d]imidazol-5-yl)sulfamoyl)benzoate]: the IC50 was 10 to 100 nM.

Take `Cn1cnc(S(=O)(=O)Nc2cc3c(cc2Oc2cccc(OCC4CCOCC4)c2)n(C)c(=O)n3C)c1` [Example 65, N-(1,3-dimethyl-2-oxo-6-(3-((tetrahydro-2H-pyran-4-yl)methoxy)phenoxy)-2,3-dihydro-1H-benzo[d]imidazol-5-yl)-1-methyl-1H-imidazole-4-sulfonamide]: the IC50 was 100 to 1000 nM.

`CCOc1cccc(Oc2cc3c(cc2NS(=O)(=O)c2cn(C)c(C)n2)n(C)c(=O)n3C)c1` [Example 6, N-(6-(3-ethoxyphenoxy)-1,3-dimethyl-2-oxo-2,3-dihydro-1H-benzo[d]imidazol-5-yl)-1,2-dimethyl-1H-imidazole-4-sulfonamide]: the IC50 fell in the range of 100 to 1000 nM.

Regarding `Cn1c(=O)n(C)c2cc(Oc3cccc(OCc4ccccc4)c3)c(NS(=O)(=O)c3cn[nH]c3)cc21` [Example 51, N-(6-(3-(benzyloxy)phenoxy)-1,3-dimethyl-2-oxo-2,3-dihydro-1H-benzo[d]imidazol-5-yl)-1H-pyrazole-4-sulfonamide], the IC50 is 100 to 1000 nM.
